“Also recorded” adds a separate entry of the source. Read-outs that look alike come from different tables or passages of the source. Marks after values point to notes of the source that are not given here.
Legend:
human KOR = target: T1, human KOR (Homo sapiens, UniProt P41145); assay: Competitive binding assay, [3H]U69,593 displacement, KOR
T1 construct: expressed in transfected cells; host or cells: CHO cells (membrane preparation)
Protocol: (§1) The human MOR, DOR, or KOR recombinant CHO cell pellets were resuspended in 50 mM Tris–HCl buffer containing 5 mM MgCl2, 1 mM ethylene glycol bis(2-aminoethyl ether)-N,N,N,N-tetraacetic acid (EGTA), pH 7.4. The cell suspensions were disrupted by use of a glassteflon homogeniser and centrifuged at 48,000× g for 15 min. The supernatant was discarded and the pellets were resuspended in buffer at a concentration of 5 mg protein/mL and stored at −80 °C until further use.
(§2) Human MOR, DOR, or KOR recombinant CHO cell membranes were incubated for 2 h at 25 °C in 0.25 mL of the buffer containing with various concentrations of the tested compound, 2 nM [^3H] DAMGO, [^3H] […] U69,593 (PerkinElmer, Inc., MA, USA), respectively. The incubation was terminated by collecting membranes on Filtermat B filter (PerkinElmer, Inc.) using a FilterMate™ harvester (PerkinElmer, Inc.). The filters were then washed three times with 50 mM Tris–HCl buffer, pH 7.4. Then, MeltiLex scintillant (PerkinElmer, Inc.) was melted onto the dried filters. Radioactivity was determined by a MicroBeta scintillation counter (PerkinElmer, Inc.). […] Ki and 95% CI values were calculated by Prism software (version 5.0).

human MOR = target: T2, human MOR (Homo sapiens, UniProt P35372); assay: Competitive binding assay, [3H]DAMGO displacement, MOR
T2 construct: expressed in transfected cells; host or cells: CHO cells (membrane preparation)
Protocol: as §1, §2

human DOR [1] = target: T3, human DOR (Homo sapiens, UniProt P41143); assay: [35S]GTPγS binding assay, functional activity for the DOR; format: biochemical; settings: for Emax: read-out: Functional Activity for DOR, Emax (95% CI)
T3 construct: expressed in transfected cells; host or cells: CHO cells (membrane preparation)
Protocol: as §1
Human MOR, DOR, or KOR recombinant CHO cell membranes were incubated for 2 h at 25 °C in 0.25 mL of 50 mM Tris–HCl buffer containing 5 mM MgCl2, 1 mM EGTA, 100 mM NaCl, pH 7.4 with various concentrations of the tested compound, 30 μM guanosine 5-diphosphate (GDP) and 0.1 nM [^35S]GTPγS (PerkinElmer, Inc.). The incubation was terminated by collecting membranes on Filtermat B filter (PerkinElmer, Inc.) using a FilterMate™ harvester (Perkin Elmer, Inc.). The filters were then washed three times with 50 mM Tris–HCl buffer, pH 7.4. Then, MeltiLex scintillant (PerkinElmer, Inc.) was melted onto the dried filters. Radioactivity was determined by a MicroBeta scintillation counter (PerkinElmer, Inc.). EC50, Emax, and 95% CI values were calculated by Prism software (version 5.0). Nonspecific binding was measured in the presence of 10 μM unlabeled GTPγS (PerkinElmer, Inc.).

human DOR [2] = target: T3, human DOR; assay: Competitive binding assay, [3H]DPDPE displacement, DOR
Protocol: as §1, §2

human DOR [3] = target: T3, human DOR; settings: cited from earlier work
human DOR [4] = target: T3, human DOR; settings: cited from earlier work; for Emax for the DOR (95% CI) / EC50 / Functional Activity for DOR, Emax (95% CI) / Emax: Percent stimulation at 10 μM of the tested compound: [35S]GTPγS
[5] = read-out: Ki for the DOR (95% CI)
[6] = read-out: EC50 for the DOR (95% CI)
[7] = read-out: Binding Affinity, Ki (DOR) (95% CI), [3H]DPDPE, CHO cells expressing human DOR
[8] = read-out: Functional Activity for DOR, EC50 (95% CI), human DOR recombinant CHO cell membrane

Row | Compound | Ki (human KOR) | Ki (human MOR) | Functional activity for the DOR, in words (human DOR [1]; [35S]GTPγS) | Emax (human DOR [1]) | Ki (human DOR [2]) | Ki (human DOR [3]; [5]) | Emax for the DOR (95% CI) (human DOR [4]) | other results
1 | C=CS(=O)(=O)N1CCC23c4c5ccc(O)c4OC2c2[nH]c4ccccc4c2CC3(O)C1C5 (stereo not drawn) [9g, 6,7-Didehydro-4,5α-epoxy-17-(ethenylsulfonyl)indolo[2′,3′:6,7]morphinan-3,14β-diol] | 59100 nM | 3570 nM | inverse agonist activities; also recorded: almost full inverse agonists | -80.2% | 196 nM | – | – | EC50 (human DOR [1]): 7.8 nM
2 | O=C(Cc1ccccc1)N1CC[C@]23c4c5ccc(O)c4O[C@H]2c2[nH]c4ccccc4c2C[C@@]3(O)[C@H]1C5 [SYK-754] | – | – | – | – | – | 89 nM | 88.5% | Functional activity for the DOR, in words (human DOR [4]): DOR full agonist with moderate potency; EC50 (human DOR [4]; [6]): 127 nM
3 | Oc1ccc2c3c1O[C@H]1c4[nH]c5ccccc5c4C[C@@]4(O)[C@@H](C2)N(CC(F)(F)F)CC[C@]314 [SYK-165] | – | – | – | – | – | – | −44.8% | –
4 | O=C(CCc1ccccc1)N1CC[C@]23c4c5ccc(O)c4O[C@H]2c2[nH]c4ccccc4c2C[C@@]3(O)[C@H]1C5 [SYK-753] | – | – | – | – | – | 41.5 nM | 97.5% | EC50 (human DOR [4]; [6]): 132 nM
5 | Oc1ccc2c3c1O[C@H]1c4[nH]c5ccccc5c4C[C@@]4(O)[C@@H](C2)N(Cc2ccccc2)CC[C@]314 [SYK-619] | – | – | – | – | – | – | – | Ki (human DOR [3]; [7]): 15.8 nM; Functional Activity for DOR, Emax (95% CI) (human DOR [4]): −56.5%; EC50 (human DOR [4]; [8]): 16.1 nM
6 | O=S(=O)(C1CC1)N1CCC23c4c5ccc(O)c4OC2c2[nH]c4ccccc4c2CC3(O)C1C5 (stereo not drawn) [9f, 17-(Cyclopropylsulfonyl)-6,7-didehydro-4,5α-epoxyindolo[2′,3′:6,7]morphinan-3,14β-diol] | 13.6 nM | 3900 nM | inverse agonist activities; also recorded: almost full inverse agonists | -80.5% | 7.44 nM | – | – | EC50 (human DOR [1]): 1.59 nM; Functional activity category for the DOR (by Emax) (human DOR [1]; [35S]GTPγS): full inverse agonist (full inverse agonist (−80% ≥ Emax)); Affinity for the DOR, fold lower than that of the mother compound NTI (human DOR [2]; Ki compared with NTI): over 10 fold
7 | O=S(=O)(Cc1ccccc1)N1CCC23c4c5ccc(O)c4OC2c2[nH]c4ccccc4c2CC3(O)C1C5 (stereo not drawn) [9d, 17-(Benzylsulfonyl)-6,7-didehydro-4,5α-epoxyindolo[2′,3′:6,7]morphinan-3,14β-diol] | 18800 nM | 5180 nM | DOR agonists | 47.1% | 734 nM | – | – | Binding affinity for the DOR, in words (human DOR [2]): low
8 | Oc1ccc2c3c1O[C@H]1c4[nH]c5ccccc5c4C[C@@]4(O)[C@@H](C2)N(CC2CC2)CC[C@]314 [NTI, naltrindole] | – | – | – | – | – | – | – | Emax: Percent stimulation at 10 μM of the tested compound (human DOR [4]): 7.50 ^h %; Functional activity for the DOR, in words (human DOR [4]): neutral antagonist
9 | O=C(C1CC1)N1CC[C@]23c4c5ccc(O)c4O[C@H]2c2[nH]c4ccccc4c2C[C@@]3(O)[C@H]1C5 [SYK-623] | – | – | – | – | – | 17.3 nM | −91.2% | Functional activity for the DOR, in words (human DOR [4]): full inverse agonist; Functional activity for the DOR, in words (human DOR [4]; listed as SKY-623): DOR full inverse agonist with high potency; EC50 (human DOR [4]; [6]): 0.969 nM
10 | O=C(c1ccccc1)N1CC[C@]23c4c5ccc(O)c4O[C@H]2c2[nH]c4ccccc4c2C[C@@]3(O)[C@H]1C5 [SYK-736] | – | – | – | – | – | 290 nM | −92.7% | EC50 (human DOR [4]; [6]): 322 nM
11 | C=CCN1CC[C@]23c4c5ccc(O)c4O[C@H]2c2[nH]c4ccccc4c2C[C@@]3(O)[C@H]1C5 [SYK-706] | – | – | – | – | – | – | – | Ki (human DOR [3]; [7]): 0.609 nM; Functional Activity for DOR, Emax (95% CI) (human DOR [4]): 16.2%; EC50 (human DOR [4]; [8]): 101 nM
12 | CS(=O)(=O)N1CCC23c4c5ccc(O)c4OC2c2[nH]c4ccccc4c2CC3(O)C1C5 (stereo not drawn) [9a, 6,7-Didehydro-4,5α-epoxy-17-(methylsulfonyl)indolo[2′,3′:6,7]morphinan-3,14β-diol] | – | 10100 nM | inverse agonist activities | -48.8% | 284 nM | – | – | EC50 (human DOR [1]): 0.468 nM
13 | Oc1ccc2c3c1O[C@H]1c4[nH]c5ccccc5c4C[C@@]4(O)[C@@H](C2)N(CCCc2ccccc2)CC[C@]314 [SYK-903] | – | – | – | 105% | 166 nM | – | – | EC50 (human DOR [1]): 7.37 nM
14 | O=S(=O)(c1ccccc1)N1CCC23c4c5ccc(O)c4OC2c2[nH]c4ccccc4c2CC3(O)C1C5 (stereo not drawn) [9c, 6,7-Didehydro-4,5α-epoxy-17-(phenylsulfonyl)indolo[2′,3′:6,7]morphinan-3,14β-diol] | 95.6 nM | 20500 nM | neutral DOR antagonist | – | 49.6 nM | – | – | –
15 | Oc1ccc2c3c1O[C@H]1c4[nH]c5ccccc5c4C[C@@]4(O)[C@@H](C2)N(CCc2ccccc2)CC[C@]314 [SYK-707] | – | – | – | – | – | – | – | Ki (human DOR [3]; [7]): 1.94 nM; Functional Activity for DOR, Emax (95% CI) (human DOR [4]): 40.3%; EC50 (human DOR [4]; [8]): 15.1 nM
16 | O=S(=O)(CCc1ccccc1)N1CCC23c4c5ccc(O)c4OC2c2[nH]c4ccccc4c2CC3(O)C1C5 (stereo not drawn) [9e, 6,7-Didehydro-4,5α-epoxy-17-((2-phenylethyl)sulfonyl)indolo[2′,3′:6,7]morphinan-3,14β-diol] | 17800 nM | 1400 nM | DOR agonists; also recorded: full DOR agonist activity with moderate potency | 88.1% | 132 nM | – | – | EC50 (human DOR [1]): 75.8 nM; Functional activity category for the DOR (by Emax) (human DOR [1]; [35S]GTPγS): full agonist
17 | CC(=O)N1CC[C@]23c4c5ccc(O)c4O[C@H]2c2[nH]c4ccccc4c2C[C@@]3(O)[C@H]1C5 [SYK-747] | – | – | – | – | – | 977 nM | – | Emax: Percent stimulation at 10 μM of the tested compound (human DOR [4]): −4.86%
18 | C=CC(=O)N1CC[C@]23c4c5ccc(O)c4O[C@H]2c2[nH]c4ccccc4c2C[C@@]3(O)[C@H]1C5 [SYK-836] | – | – | – | – | – | 1.16 nM | −86.2% | EC50 (human DOR [4]; [6]): 1.43 nM
19 | O=S(=O)(N1CCC23c4c5ccc(O)c4OC2c2[nH]c4ccccc4c2CC3(O)C1C5)C(F)(F)F (stereo not drawn) [9b, 6,7-Didehydro-4,5α-epoxy-17-(1,1,1-trifluoromethylsulfonyl)indolo[2′,3′:6,7]morphinan-3,14β-diol] | 675 nM | 11800 nM | inverse agonist activities | – | 365 nM | – | – | Emax at 10 µM (human DOR [1]; read-out: Emax: Percent stimulation at 10 μM of the tested compound, [35S]GTPγS, 10 μM): -36.1%
20 | O=C(N1CC[C@]23c4c5ccc(O)c4O[C@H]2c2[nH]c4ccccc4c2C[C@@]3(O)[C@H]1C5)C(F)(F)F [SYK-752] | – | – | – | – | – | 7.84 nM | – | Emax: Percent stimulation at 10 μM of the tested compound (human DOR [4]): −1.10%
